Calls of active or inactive are those of the source.
Experiments:
[1] = target: Prothrombin (Homo sapiens, UniProt P00734); experiment: Thrombin 1536 HTS Dose Response Confirmation. [Related pubchem assays: 1046 (Thrombin 1536 HTS; hits were confirmed in this assay)]; assay type: functional
[2] = target: Leucine aminopeptidase (Plasmodium falciparum 3D7, UniProt Q8IL11); experiment: P. falciparum M17LAP inhibitors, primary screen, biochemical, fluorogenic H-Leu-NHMec substrate, 1536-well (AID 1619); assay type: functional
Chain of Leucine aminopeptidase (Q8IL11 whole entry): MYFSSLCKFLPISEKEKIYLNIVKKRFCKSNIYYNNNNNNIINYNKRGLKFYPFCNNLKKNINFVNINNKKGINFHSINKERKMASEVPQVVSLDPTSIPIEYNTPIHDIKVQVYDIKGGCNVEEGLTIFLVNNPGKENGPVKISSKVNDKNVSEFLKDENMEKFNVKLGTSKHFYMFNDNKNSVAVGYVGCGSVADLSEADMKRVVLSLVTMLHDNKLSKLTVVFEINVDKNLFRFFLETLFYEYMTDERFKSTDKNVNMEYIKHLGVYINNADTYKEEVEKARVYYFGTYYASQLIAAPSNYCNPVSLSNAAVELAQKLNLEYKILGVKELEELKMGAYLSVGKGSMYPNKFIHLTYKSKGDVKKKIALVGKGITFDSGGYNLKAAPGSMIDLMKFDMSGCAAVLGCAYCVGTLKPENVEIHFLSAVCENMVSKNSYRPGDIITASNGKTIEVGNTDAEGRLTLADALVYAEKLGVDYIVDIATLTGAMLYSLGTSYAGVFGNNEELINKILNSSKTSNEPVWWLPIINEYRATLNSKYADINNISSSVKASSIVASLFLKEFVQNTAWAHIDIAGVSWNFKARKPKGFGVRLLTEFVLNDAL

[3] = HEK293 cell cytotoxicity, dose response, cytotoxicity control, plate reader, cherry-picked samples (AID 743446); assay type: functional, cell-based
[4] = HepG2 cell cytotoxicity, dose response, cytotoxicity control, plate reader, cherry-pick, antagonist series (AID 743416); assay type: functional, cell-based
[5] = MC4R antagonists, dose response, counter-screen for LGR2 antagonist project, cell-based, plate reader, cherry pick (AID 743444); assay type: functional;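 further: transfected HEK 293 cells stimulated with alpha-MSH peptide; potency of inhibitors of the alpha-MSH evoked signal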
[6] = A549 cell cytotoxicity, dose response, cytotoxicity control, plate reader, cherry-pick, antagonist series (AID 743412); assay type: functional, cell-based
[7] = target: E3 ubiquitin-protein ligase Mdm2 (Homo sapiens, UniProt Q00987); experiment: enhancers of MDM2-luciferase reporter signal, concentration-effect titration, project on inhibitors of MDM2 ubiquitin ligase, cellular assay, luminescent readout, 384-well plate format (AID 1394); assay type: functional;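 further: MDM2 E3 inhibitors raise luminescence so EC50 is for signal enhancement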
Chain of E3 ubiquitin-protein ligase Mdm2 (Q00987 whole entry, the tested form may be a part): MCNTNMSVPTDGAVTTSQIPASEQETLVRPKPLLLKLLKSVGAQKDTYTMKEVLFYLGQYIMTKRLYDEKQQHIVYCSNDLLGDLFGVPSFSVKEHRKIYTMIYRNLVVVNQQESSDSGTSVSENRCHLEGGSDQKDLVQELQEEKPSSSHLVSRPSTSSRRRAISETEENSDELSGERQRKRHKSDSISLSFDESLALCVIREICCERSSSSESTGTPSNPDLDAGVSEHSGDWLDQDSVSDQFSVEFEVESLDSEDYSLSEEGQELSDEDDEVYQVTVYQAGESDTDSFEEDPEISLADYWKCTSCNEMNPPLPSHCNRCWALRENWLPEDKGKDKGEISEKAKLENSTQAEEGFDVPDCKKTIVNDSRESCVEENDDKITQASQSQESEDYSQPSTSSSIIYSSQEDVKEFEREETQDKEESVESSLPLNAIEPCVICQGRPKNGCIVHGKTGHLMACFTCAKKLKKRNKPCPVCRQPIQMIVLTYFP

[8] = target: T1, Estrogen receptor (Homo sapiens, UniProt P03372); experiment: potentiators of ERα–SRC-1 coactivator binding, dose response, biochemical, TR-FRET, ERα LBD (AID 737)
T1 sequence (P03372 whole entry): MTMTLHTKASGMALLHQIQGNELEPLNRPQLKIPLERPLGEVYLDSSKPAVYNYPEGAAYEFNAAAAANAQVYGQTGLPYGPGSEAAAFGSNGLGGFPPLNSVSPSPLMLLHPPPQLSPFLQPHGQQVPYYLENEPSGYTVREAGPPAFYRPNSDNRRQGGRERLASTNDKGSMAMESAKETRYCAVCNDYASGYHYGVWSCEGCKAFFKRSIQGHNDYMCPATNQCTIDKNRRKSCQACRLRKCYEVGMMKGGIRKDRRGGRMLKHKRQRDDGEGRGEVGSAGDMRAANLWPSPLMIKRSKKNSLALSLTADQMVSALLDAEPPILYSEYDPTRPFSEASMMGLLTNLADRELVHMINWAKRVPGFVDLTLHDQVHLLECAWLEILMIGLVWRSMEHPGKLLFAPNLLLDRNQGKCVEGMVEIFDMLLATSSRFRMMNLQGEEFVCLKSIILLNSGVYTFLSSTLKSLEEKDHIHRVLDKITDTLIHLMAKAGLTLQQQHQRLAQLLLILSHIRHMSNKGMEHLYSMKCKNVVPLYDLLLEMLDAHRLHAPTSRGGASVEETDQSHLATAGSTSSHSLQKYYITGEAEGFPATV

[9] = M. tuberculosis H37Rv growth inhibitors, H37Rv strain (AID 1626); assay type: functional
[10] = THP-1 cell cytotoxicity, dose response, cytotoxicity control for Vif-APOBEC3G degradation inhibitor project, THP-1 cells (AID 1117359); assay type: functional; settings: Human immunodeficiency virus 1, THP-1
[11] = target: Ephrin type-A receptor 4 (Mus musculus, UniProt Q03137); experiment: inhibitors of EphA4 binding to KYL peptide, primary screen, biochemical, colorimetric, mouse EphA4 (AID 689); assay type: functional
Chain of Ephrin type-A receptor 4 (Q03137 whole entry): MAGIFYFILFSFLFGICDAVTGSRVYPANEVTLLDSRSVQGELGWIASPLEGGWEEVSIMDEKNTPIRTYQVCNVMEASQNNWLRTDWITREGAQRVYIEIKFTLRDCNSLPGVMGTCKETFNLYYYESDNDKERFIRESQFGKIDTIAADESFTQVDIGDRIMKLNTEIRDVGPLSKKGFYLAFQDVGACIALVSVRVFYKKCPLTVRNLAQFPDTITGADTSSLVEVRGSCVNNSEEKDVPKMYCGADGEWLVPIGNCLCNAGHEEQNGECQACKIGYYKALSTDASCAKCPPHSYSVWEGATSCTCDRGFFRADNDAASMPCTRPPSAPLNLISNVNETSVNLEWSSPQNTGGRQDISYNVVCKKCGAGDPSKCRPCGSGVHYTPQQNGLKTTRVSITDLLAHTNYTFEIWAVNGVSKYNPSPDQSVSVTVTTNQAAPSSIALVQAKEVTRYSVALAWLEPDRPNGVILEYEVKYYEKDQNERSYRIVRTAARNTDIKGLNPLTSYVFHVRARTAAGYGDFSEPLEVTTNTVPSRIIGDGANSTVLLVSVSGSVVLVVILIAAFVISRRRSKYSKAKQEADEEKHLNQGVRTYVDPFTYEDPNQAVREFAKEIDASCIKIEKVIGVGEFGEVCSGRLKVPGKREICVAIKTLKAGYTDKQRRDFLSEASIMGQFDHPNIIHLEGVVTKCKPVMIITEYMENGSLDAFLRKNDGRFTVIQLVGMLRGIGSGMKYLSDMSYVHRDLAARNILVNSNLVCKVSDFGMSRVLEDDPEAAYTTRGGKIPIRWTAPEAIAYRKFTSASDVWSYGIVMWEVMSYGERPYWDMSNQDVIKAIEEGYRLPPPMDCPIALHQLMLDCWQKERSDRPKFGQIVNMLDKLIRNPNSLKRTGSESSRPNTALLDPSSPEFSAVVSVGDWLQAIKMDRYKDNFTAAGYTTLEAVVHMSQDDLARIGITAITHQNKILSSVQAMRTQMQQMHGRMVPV

[12] = HepG2 cell cytotoxicity, dose response, cytotoxicity control, plate reader, dry powder samples (AID 1159569); assay type: functional, cell-based;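 further: inhibitor potency with signal falling toward the positive control level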
[13] = P. falciparum ATP4 D1247Y mutant growth inhibitors, dose response, NITD609-resistant line, SYBR Green, dry powder (AID 1159571); assay type: functional, cell-based;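 further: parasites synchronized at ring stage by sorbitol before testing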
[14] = P. falciparum Dd2 growth inhibitors, dose response, SYBR Green, cherry-picked samples (AID 1159567); assay type: functional, cell-based
[15] = P. falciparum Dd2 growth inhibitors, dose response, SYBR Green, dry powder samples (AID 1159566); assay type: functional, cell-based;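 further: potency for growth inhibition with lower SYBR green DNA signal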
[16] = P. falciparum 3D7-ScDHODH growth inhibitors, dose response, SYBR Green, dry powder samples (AID 1159570); assay type: functional, cell-based;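 further: parasite growth measured after 72 hours of compound exposure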
[17] = Luminescence Cell-Based Dose Confirmation HTS to Identify Inhibitors of Platelet Dense Granule Release. [Related pubchem assays: 1663 (Primary HTS), 1678 (Summary of Project)]; assay type: functional
[18] = target: T2, Protein skinhead-1 (Caenorhabditis elegans, UniProt P34707); assay type: functional
T2 sequence (P34707 whole entry): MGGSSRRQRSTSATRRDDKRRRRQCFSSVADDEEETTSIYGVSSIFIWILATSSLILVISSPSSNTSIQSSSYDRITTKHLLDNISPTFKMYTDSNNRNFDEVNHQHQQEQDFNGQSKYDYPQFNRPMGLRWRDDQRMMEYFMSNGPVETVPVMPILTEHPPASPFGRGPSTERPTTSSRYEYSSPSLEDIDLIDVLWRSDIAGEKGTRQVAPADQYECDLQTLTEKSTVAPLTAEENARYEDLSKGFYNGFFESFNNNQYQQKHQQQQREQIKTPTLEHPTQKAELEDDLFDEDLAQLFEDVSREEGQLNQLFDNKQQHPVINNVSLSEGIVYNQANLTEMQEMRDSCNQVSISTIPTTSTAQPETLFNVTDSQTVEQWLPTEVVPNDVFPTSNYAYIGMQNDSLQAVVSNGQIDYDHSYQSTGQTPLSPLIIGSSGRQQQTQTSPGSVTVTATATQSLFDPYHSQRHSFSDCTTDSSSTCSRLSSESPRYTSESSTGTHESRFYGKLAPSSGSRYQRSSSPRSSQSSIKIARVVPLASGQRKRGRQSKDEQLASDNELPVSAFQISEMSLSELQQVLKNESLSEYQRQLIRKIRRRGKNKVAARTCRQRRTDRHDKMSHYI

[19] = cells
[20] = target: T3, Oxysterols receptor LXR-beta (Homo sapiens, UniProt P55055); assay type: functional, cell-based;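 further: Cell-based luminescence dose-response assay of agonist activity at LXR, run as a confirmatory counterscreen to a daf-12 agonist screen; agonist potency from rising luciferase signal of a Gal4-LXR reporter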
T3 sequence (P55055 whole entry): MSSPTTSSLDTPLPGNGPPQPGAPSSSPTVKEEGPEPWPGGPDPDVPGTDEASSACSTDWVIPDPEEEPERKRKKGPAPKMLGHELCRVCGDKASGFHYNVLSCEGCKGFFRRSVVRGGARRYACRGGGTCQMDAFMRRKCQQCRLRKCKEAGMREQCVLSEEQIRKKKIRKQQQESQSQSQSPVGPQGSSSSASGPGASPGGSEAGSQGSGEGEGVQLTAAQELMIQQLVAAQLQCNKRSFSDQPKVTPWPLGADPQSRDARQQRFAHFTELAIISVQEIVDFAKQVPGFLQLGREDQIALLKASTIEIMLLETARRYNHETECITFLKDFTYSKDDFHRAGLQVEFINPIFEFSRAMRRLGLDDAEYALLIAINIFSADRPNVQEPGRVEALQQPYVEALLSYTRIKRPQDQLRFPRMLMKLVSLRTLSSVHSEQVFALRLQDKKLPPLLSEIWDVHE

[21] = target: Luciferin 4-monooxygenase (Photinus pyralis, UniProt P08659); experiment: firefly luciferase enzyme inhibitors, dose response, biochemical, luminescence (AID 1891)
Chain of Luciferin 4-monooxygenase (P08659 whole entry, the tested form may be a part): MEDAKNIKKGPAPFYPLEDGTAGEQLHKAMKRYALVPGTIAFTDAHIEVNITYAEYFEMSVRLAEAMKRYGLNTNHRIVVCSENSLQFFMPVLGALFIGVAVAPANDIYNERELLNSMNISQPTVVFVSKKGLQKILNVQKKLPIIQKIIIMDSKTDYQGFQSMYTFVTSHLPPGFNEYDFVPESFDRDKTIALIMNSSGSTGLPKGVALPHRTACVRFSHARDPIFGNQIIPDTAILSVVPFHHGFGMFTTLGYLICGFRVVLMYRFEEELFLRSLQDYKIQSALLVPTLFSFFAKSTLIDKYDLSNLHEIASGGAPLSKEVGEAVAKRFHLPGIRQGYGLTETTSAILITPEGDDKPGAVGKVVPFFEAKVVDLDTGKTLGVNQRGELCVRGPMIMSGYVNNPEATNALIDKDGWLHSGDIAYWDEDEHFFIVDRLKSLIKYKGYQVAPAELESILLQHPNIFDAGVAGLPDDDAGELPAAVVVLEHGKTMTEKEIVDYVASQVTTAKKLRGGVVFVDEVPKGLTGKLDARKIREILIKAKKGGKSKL

[22] = target: T3, Oxysterols receptor LXR-beta; experiment: LXR agonists, Gal4 luciferase reporter, dose response, counter-screen for ssDAF-12 agonist project, cell-based, luminescence, HEK293, S. stercoralis campaign (AID 720737); assay type: functional; settings: read-out: IC50 (the source's name)
[23] = Luminescence-based cell-based high throughput dose response assay to identify activators of the DAF-12 from the parasite S. stercoralis (ssDAF-12).; assay type: functional
[24] = target: Protein-tyrosine kinase 2-beta (Homo sapiens, UniProt Q14289);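 further: potency of inhibitors of PYK2 kinase phosphorylation of poly-GT substrate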
Chain of Protein-tyrosine kinase 2-beta (Q14289 whole entry): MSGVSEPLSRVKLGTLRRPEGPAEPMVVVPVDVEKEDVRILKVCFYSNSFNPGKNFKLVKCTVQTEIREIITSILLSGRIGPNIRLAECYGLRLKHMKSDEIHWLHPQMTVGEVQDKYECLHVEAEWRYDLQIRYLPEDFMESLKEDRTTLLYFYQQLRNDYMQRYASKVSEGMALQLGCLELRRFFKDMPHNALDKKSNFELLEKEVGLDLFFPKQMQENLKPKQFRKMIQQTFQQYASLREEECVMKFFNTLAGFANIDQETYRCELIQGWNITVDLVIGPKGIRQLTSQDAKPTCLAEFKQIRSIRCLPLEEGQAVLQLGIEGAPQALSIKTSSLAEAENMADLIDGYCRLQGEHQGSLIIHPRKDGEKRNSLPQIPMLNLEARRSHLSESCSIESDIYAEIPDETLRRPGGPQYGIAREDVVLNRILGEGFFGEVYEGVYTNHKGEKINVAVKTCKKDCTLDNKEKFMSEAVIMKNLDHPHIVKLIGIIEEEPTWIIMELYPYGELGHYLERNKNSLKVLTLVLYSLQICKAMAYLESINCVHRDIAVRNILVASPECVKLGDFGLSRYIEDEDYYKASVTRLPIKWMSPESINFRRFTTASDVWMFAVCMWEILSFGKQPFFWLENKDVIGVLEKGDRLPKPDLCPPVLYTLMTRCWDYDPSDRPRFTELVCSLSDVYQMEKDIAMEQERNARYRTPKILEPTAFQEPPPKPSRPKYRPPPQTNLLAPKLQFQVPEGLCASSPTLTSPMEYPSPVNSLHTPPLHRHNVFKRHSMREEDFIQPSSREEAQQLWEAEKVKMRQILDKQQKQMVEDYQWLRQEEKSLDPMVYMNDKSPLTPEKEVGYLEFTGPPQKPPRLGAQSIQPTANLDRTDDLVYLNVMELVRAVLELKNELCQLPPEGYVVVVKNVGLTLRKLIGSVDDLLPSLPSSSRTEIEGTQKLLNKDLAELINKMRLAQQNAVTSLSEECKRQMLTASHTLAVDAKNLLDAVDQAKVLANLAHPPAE

[25] = HepG2 cell cytotoxicity, dose response, cytotoxicity control, cherry-picked samples (AID 1159577); assay type: functional, cell-based
[26] = Luminescence Cell-Based Dose Confirmation HTS to Identify Inhibitors of Polyadenylation.; assay type: functional
[27] = system: BJ; experiment: cytotoxicity toward Ras-transformed BJeLR fibroblasts, dose response, cell-based, alamar blue fluorescence, cherrypicked samples (AID 2631); assay type: functional; settings: Homo sapiens;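 further: confirmatory dose-response assay in RAS-dependent BJ fibroblasts engineered with TERT, LT and ST, with cytotoxicity read by fluorescence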
[28] = Fluorescence Cell-Based Dose Response to Identify Inhibitors of Thrombin Receptor-Activating Peptide SFLLRN-Mediated P-Selectin Induction on Platelets. [Related pubchem assays: 1663 (Primary HTS), 1889 (retest at dose ), 1891 (counterscreen), 1678 (Project Summary)]; assay type: functional
[29] = system: INS1; experiment: beta cell apoptosis inhibitors, cytokine rescue, dose response, luminescence, retest (AID 449756); assay type: functional, cell-based; settings: Rattus norvegicus;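 further: cell death triggered by IL-1 beta plus TNF-alpha plus IFN-gamma mixture; protective hits raise ATP signal compared with cytokine alone wells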
[30] = system: Vero; experiment: host cell cytotoxicity of antiviral hits, dose response, cytotoxicity control for West Nile virus antiviral project, secondary assay (AID 1650); assay type: functional; settings: Chlorocebus sabaeus
[31] = system: H4; experiment: Luminescence Cell-Based Dose Response HTS to Identify Activators of 5'UTR Stem-Loop Driven Prion Protein mRNA Translation in H4 Neuroglioblastoma Cells. [Related pubchem assays: 1829 (Project Summary), 1814 (Primary HTS)]; assay type: functional; settings: Homo sapiens
[32] = Luminescence Cell-Based Dose Response HTS to Identify Activators of Luciferase Translation or Activity in H4 […] Cells. [Related pubchem assays: 1829 (Project Summary), 1814 (Primary HTS)]; assay type: functional
[33] = Luminescence Cell-Based Dose Confirmation HTS to Identify Activators of 5'UTR Stem-Loop Driven Alpha-Synuclein mRNA Translation in H4 Neuroglioblastoma Cells. [Related pubchem assays: 1829 (Project Summary), 1814 (Primary HTS)]; assay type: functional
[34] = target: T4, Mannose-6-phosphate isomerase (Homo sapiens, UniProt P34949); experiment: inhibitors of human PMI, primary screen, biochemical, fluorescence intensity, coupled assay (AID 1209)
T4 sequence (P34949 whole entry): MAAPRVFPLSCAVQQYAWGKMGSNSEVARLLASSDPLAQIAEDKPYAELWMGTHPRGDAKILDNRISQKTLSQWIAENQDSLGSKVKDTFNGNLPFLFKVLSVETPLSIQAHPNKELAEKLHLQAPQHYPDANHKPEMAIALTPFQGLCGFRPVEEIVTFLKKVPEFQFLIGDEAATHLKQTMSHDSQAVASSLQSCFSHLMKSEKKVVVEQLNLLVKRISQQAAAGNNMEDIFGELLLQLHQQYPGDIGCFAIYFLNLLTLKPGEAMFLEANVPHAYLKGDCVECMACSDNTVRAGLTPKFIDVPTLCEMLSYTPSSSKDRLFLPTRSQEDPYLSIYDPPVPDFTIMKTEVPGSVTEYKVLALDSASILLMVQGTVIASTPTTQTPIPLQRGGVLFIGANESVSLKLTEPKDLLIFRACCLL

CSc1nc(-c2ccccc2)nn1C(=O)c1ccco1
IC50 [1]: 0.3 µM (active)

Nc1[nH]ncc1-c1ccc(Cl)cc1
IC50 [2]: 38.2 µM (active)

Cc1ccc2c(c1)C1CN(C)CCC1N2C(=O)c1cn(-c2ccccc2)nc1-c1ccccc1 (stereo not drawn)
IC50 [1]: 3.04 µM (active)
AC50 [3]: 35.3 µM (active)
AC50 [4]: > 52 µM (inactive)
AC50 [5]: 55.6 µM (active)
AC50 [6]: 36.4 µM (active)

O=C1NC(=O)c2cc(NC(=O)C3COc4ccccc4O3)ccc21 (stereo not drawn)
EC50 [7]: 6.75 µM (not active)

Cc1nn(-c2ccccc2)c2sc(C(=O)c3c(N)n(C)c(=O)n(C)c3=O)cc12
EC50 [8]: 12.6 µM (active)

CC(=O)Nc1ccc(NC(=O)c2ccc(C3SCC(=O)N3CCc3ccccc3)cc2)cc1 (stereo not drawn)
IC50 [9]: > 100 µM (active)

CCOC(=O)C1=C(C)N=c2s/c(=C/c3ccco3)c(=O)n2C1c1cccc(OC)c1 (stereo not drawn)
CC50 [10]: > 40 µM (active)
IC50 [11]: > 100 µM (not active)

COCc1cn([C@@H]2C[C@@H]3O[C@@H](CO)CC[C@@H]3O[C@@H]2CCc2ccc(-c3ccc(OC)cc3)cc2)nn1
AC50 [12]: 43 µM (active)
AC50 [13]: 0.451 µM (active)
AC50 [14]: 1.12 µM (active)
AC50 [15]: 0.362 µM (active)
AC50 [16]: 0.231 µM (active)

COc1ccc2oc(C)c(C(=O)NN)c2c1
IC50 [2]: 26.6 µM (active)

C[C@H](CO)N1C[C@H](C)[C@@H](CN(C)C(=O)c2ccc(F)cc2)Oc2ncc(/C=C/c3ccccc3)cc2C1=O
AC50 [12]: 85.2 µM (active)
AC50 [13]: 1.65 µM (active)
AC50 [14]: 1.63 µM (active)
AC50 [15]: 1.58 µM (active)
AC50 [16]: 2.68 µM (active)

COc1cccc(C2(CSc3nnc(-c4cc(OC)c(OC)c(OC)c4)o3)OCCO2)c1
IC50 [11]: > 100 µM (not active)

COc1cccc(-c2nc(-c3cccs3)no2)c1
EC50 [17]: > 112 µM (not active)
IC50 [18]: > 100 µM (inactive)
EC50 [19]: > 67.6 µM (inactive)
EC50 [20]: > 67.6 µM (inactive)
EC50 [21]: > 112 µM (not active)
EC50 [22]: > 67.6 µM (inactive)
IC50 [23]: > 67.6 µM (inactive)

CC(=O)Nc1ccc(Nc2cc(C)nc3c(-c4ccccc4)c(C)nn23)cc1
IC50 [9]: > 100 µM (active)

COCCN(Cc1ccccc1)P(=O)(O)c1ccccc1OCC(=O)O
IC50 [24]: 7.64 µM (active)

O=S(=O)(c1ccc(-c2ccccc2)cc1)N1C[C@@H]2N[C@H](C1)[C@@H]2c1ccc(-c2ccccc2)cc1
AC50 [25]: 16 µM (active)
AC50 [14]: 2.86 µM (active)

Cn1c(=O)c(C(=O)NNC(=O)c2ccccc2Cl)c(O)c2ccccc21
EC50 [26]: > 120 µM (not active)

CCc1c(C)c(C#N)c2nc3ccccc3n2c1Cl
EC50 [27]: 0.443 µM (inconclusive)
EC50 [7]: 9.98 µM (not active)

COc1ccccc1-n1cc(-c2ccc(Cl)cc2)nc1O
EC50 [17]: 1.89 µM (active)
EC50 [28]: < 0.3 µM (active)
EC50 [21]: > 112 µM (not active)

Cn1c(=O)[nH]c(=O)c2c1nc(N1CCN(C(c3ccccc3)c3ccccc3)CC1)n2CCO
AC50 [29]: 6.24 µM (active)
CC50 [30]: 14.5 µM (active)

COC(=O)c1cc(C(=O)N2CCN(c3cccc(C)c3C)CC2)cc([N+](=O)[O-])c1
EC50 [26]: > 120 µM (not active)

Cc1cc(N=C(S)Nc2ccc(C)c(Cl)c2)[nH]n1
EC50 [31]: 14.8 µM (active)
EC50 [32]: 76.2 µM (active)
EC50 [33]: 8.11 µM (active)
IC50 [34]: > 50 µM (not active)

Source: ChEMBL document CHEMBL1201862, “PubChem BioAssay data set” (2004)
